Test [1] concerns the target T1, TRPV1 (Homo sapiens, UniProt Q8NER1).
T1 construct: expressed in transfected cells
As to the kind of experiment: TRPV1 enhancement, enhancer added after TRPV1 activator capsaicin. The class given is cell-based. The protocol:
In order to determine whether TRPV1 is activated, the intracellular calcium ion (Ca^+2) levels in TRPV1 receptors is measured. […] (human embryonic kidney) cells stably transfected with human TRPV1 are grown in 15 ml growth medium [high glucose DMEM (Dulbecco's Modification of Eagle's Medium) supplemented with 10% FBS (fetal bovine serum), 100 μg/ml Penicillin/streptomycin, 100 μg/ml G418] in a 75 Cm^2 flask for 3 days at 33° C. in a mammalian cell culture incubator set at 5% CO2. Cells are detached with addition of 10 ml of PBS (phosphate buffered saline) by hand shaking gently. Cells are transferred to a 50 ml tube and centrifuged at 850 rpm for 3 minutes to remove PBS. After centrifugation, a pellet of cells is formed in the bottom of the tube separating them from the supernatant solution. […] Fluo-4 is a fluorescent dye used for quantifying cellular Ca^2+ concentrations in the 100 nM to 1 microM range. At the end of the 30 minutes, 45 ml of assay buffer [1×HBSS (Hank's Balanced Salt Solution), 20 mM HEPES (4-(2-Hydroxyethyl)-1-piperazineethanesulfonic acid)] is added to wash cells and the resulting combination is then centrifuged at 850 rpm for 3 minutes to remove excess buffer and Fluo-4 AM calcium indicator.
[…] […] For determining the direct effect of test compounds on TRPV1, fluorescence is measured immediately after addition of each compound.

The nature of test [2]: Burning sensation on the standard Scoville hotness scale.
In test [3] the target is T1, TRPV1. As to the kind of experiment: TRPV1 enhancement, TRPV1 activator VBE and enhancer added together. As to conditions: VBE 3.5 microMolar. The class given is cell-based. The protocol: In order to determine whether TRPV1 is activated, the intracellular calcium ion (Ca^+2) levels in TRPV1 receptors is measured. […] (human embryonic kidney) cells stably transfected with human TRPV1 are grown in 15 ml growth medium [high glucose DMEM (Dulbecco's Modification of Eagle's Medium) supplemented with 10% FBS (fetal bovine serum), 100 μg/ml Penicillin/streptomycin, 100 μg/ml G418] in a 75 Cm^2 flask for 3 days at 33° C. in a mammalian cell culture incubator set at 5% CO2. Cells are detached with addition of 10 ml of PBS (phosphate buffered saline) by hand shaking gently. Cells are transferred to a 50 ml tube and centrifuged at 850 rpm for 3 minutes to remove PBS. After centrifugation, a pellet of cells is formed in the bottom of the tube separating them from the supernatant solution. The supernatant is discarded and the cell pellet is suspended in 1 ml of fresh growth medium to which 5 μl (12.5 μg) of Fluo-4 AM (Molecular Probes, Inc.) calcium indicator is added and incubated for 30 min with gentle shaking. Fluo-4 is a fluorescent dye used for quantifying cellular Ca^2+ concentrations in the 100 nM to 1 microM range. At the end of the 30 minutes, 45 ml of assay buffer [1×HBSS (Hank's Balanced Salt Solution), 20 mM HEPES (4-(2-Hydroxyethyl)-1-piperazineethanesulfonic acid)] is added to wash cells and the resulting combination is then centrifuged at 850 rpm for 3 minutes to remove excess buffer and Fluo-4 AM calcium indicator.
The pellet cells are re-suspended in 10 ml assay buffer and 90 μl aliquots (˜50,000 cells) per well delivered to a 96-well assay plate containing 10 μl of test compounds (1 mM in assay buffer, final concentration 100 μM) or buffer control and incubated at room temperature for 30 minutes. After 30 minutes, the plate is placed into a fluorometric imaging plate reader (FLIPR^384 from Molecular Devices) and basal fluorescence recorded (excitation wave length 488 nm and emission wave length 510 nm). The FLIPR assay is an accepted method for detecting changes in intracellular calcium concentration. Then 20 μl of the molecule being tested as a TRPV1 activator is added and fluorescence recorded. For determining the direct effect of test compounds on TRPV1, fluorescence is measured immediately after addition of each compound. Additional discussion of the FLIPR method can be found in Smart et al., Characterization using FLIPR of human vanilloid VR1 receptor pharmacology, European Journal of Pharmacology 417, 51-58 (2001) and Liu et al., Development and validation of a platelet calcium flux assay using a fluorescent imaging plate reader, Analytical Biochemistry 357, 216-224 (2006).
In a separate test, the TRPV1 activator (VBE) and the enhancer are added together. […] See the chart below.

Test [4] addresses T1, TRPV1. As to the kind of experiment: FLIPR calcium flux assay for TRPV1 activation in transfected HEK cells. In kind it is cell-based. As to the method: The term “TRPV1 activator” as used herein refers to any component which at a concentration of 1 mM gives a calcium flux count of at least 1000 counts above the background level of calcium present in the cell according to the FLIPR method as discussed herein. The term “count” is defined as the change in fluorescence of the transfected cell lines due to the influx of calcium across the cell membrane, which reacts with the calcium sensitive dye present within the cells.
In order to determine whether TRPV1 is activated, the intracellular calcium ion (Ca^+2) levels in TRPV1 receptors is measured. […] (human embryonic kidney) cells stably transfected with human TRPV1 are grown in 15 ml growth medium [high glucose DMEM (Dulbecco's Modification of Eagle's Medium) supplemented with 10% FBS (fetal bovine serum), 100 μg/ml Penicillin/streptomycin, 100 μg/ml G418] in a 75 Cm^2 flask for 3 days at 33° C. in a mammalian cell culture incubator set at 5% CO2. Cells are detached with addition of 10 ml of PBS (phosphate buffered saline) by hand shaking gently. Cells are transferred to a 50 ml tube and centrifuged at 850 rpm for 3 minutes to remove PBS. […] Fluo-4 is a fluorescent dye used for quantifying cellular Ca^2+ concentrations in the 100 nM to 1 microM range. […]
The pellet cells are re-suspended in 10 ml assay buffer and 90 μl aliquots (˜50,000 cells) per well delivered to a 96-well assay plate containing 10 μl of test compounds (1 mM in assay buffer, final concentration 100 μM) or buffer control and incubated at room temperature for 30 minutes. After 30 minutes, the plate is placed into a fluorometric imaging plate reader (FLIPR^384 from Molecular Devices) and basal fluorescence recorded (excitation wave length 488 nm and emission wave length 510 nm). […] Then 20 μl of the molecule being tested as a TRPV1 activator is added and fluorescence recorded. For determining the direct effect of test compounds on TRPV1, fluorescence is measured immediately after addition of each compound. […]
In general terms: A change in cytosolic calcium serves as a functional read-out for many receptors and channels.

The nature of test [5]: Consumer Test I: panelists brush with dentifrice and rate bothersome and bad aftertaste. The class given is in vivo, human. To be noted: in dentifrice. The protocol:
In order to show the effect of the addition of a TRPV1 activator and/or Vanitrope on the perception of taste in an oral care composition, the following compositions are made and given to consumers to sample.
The base of the control dentifrice (i.e. everything but the flavor) is made via vacuum mixing. The flavor is added in a second step my speed mixing to complete the control. The additional compositions are then made by speed mixing into the control base the TRPV1 activator and/or vanitrope plus flavor at the stated levels. The samples are then placed in tubes and delivered to the testing facility.
At the testing facility, panelists are provided with a generic brush with 1.0 g of toothpaste. Each panelist has an individual sink, mirror, disposable cup and paper towels. They are asked to brush as they normally would at home. Before and after brushing the panelist will answer a series of questions relating to their experience with the toothpaste. The panelists are asked to comment on their experience right after brushing and then at each hour interval for three hours. The comments from the consumers are translated into numerical values for comparison. The results for the above compositions as it related to bothersome and bad aftertaste are shown below.
Also included in the above testing are combinations of TRPV1 activators and/or vanitrope. The formulations for these tests are below and the control is the same as that listed above.

[6] abbreviates: both bothersome and bad aftertaste, each of hours 1-3.

Read-outs that look alike come from different tables or passages of the source.

T1 sequence (Q8NER1 whole entry): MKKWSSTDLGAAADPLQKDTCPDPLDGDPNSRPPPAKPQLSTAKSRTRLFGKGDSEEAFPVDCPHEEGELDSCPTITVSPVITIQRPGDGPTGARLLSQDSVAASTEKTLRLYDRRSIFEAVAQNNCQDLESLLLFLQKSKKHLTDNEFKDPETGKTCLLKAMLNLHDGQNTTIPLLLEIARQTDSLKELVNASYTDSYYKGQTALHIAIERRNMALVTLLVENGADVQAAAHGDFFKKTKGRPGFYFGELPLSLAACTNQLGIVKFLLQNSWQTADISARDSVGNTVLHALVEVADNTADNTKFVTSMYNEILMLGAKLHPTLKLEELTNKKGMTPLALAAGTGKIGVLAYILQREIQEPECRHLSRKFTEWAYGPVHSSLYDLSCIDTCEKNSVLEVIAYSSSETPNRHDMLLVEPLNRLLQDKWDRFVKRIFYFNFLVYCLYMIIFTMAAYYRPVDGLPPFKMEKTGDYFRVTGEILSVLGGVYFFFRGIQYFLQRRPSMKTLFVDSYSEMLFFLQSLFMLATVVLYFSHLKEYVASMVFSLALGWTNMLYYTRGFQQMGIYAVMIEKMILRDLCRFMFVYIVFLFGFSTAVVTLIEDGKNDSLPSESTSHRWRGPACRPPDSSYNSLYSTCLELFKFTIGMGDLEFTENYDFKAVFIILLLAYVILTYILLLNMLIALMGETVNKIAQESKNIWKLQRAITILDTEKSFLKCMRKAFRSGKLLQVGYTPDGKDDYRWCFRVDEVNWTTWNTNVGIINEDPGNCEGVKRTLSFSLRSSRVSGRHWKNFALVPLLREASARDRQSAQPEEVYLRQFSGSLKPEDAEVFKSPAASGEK

In the case of `CC(C)=CCCC(C)C=O` (centres unmarked) [2,6-Dimethyl-5-Heptenal], at TRPV1 [1], the “% Enhancement” value was 17.5%.

As to `CCCCCCC(C)=O` [2-Octanone], the “% Enhancement” value at TRPV1 [1] was determined as 19.87%.

As to `CCCCC[C@H](O)CC(=O)CCc1ccc(O)c(OC)c1` [6-Gingerol], the “'Hotness' (as log Scoville Units)” value in test [2] (burning sensation) was determined as 4.9 log Scoville Units.

In the case of `CCCCC/C=C/C(=O)CCc1ccc(O)c(OC)c1` [6-Shoagol], the “'Hotness' (as log Scoville Units)” value in test [2] (burning sensation) came out at 5.1 log Scoville Units.

With `C=CCS[S+]([O-])CC=C` (centres unmarked) [Allicin], the “'Hotness' (as log Scoville Units)” value in test [2] (burning sensation) is on record as 4.0 log Scoville Units.

For the compound `CC(=O)OC(C)(C)Cc1ccccc1` [Alpha, Alpha Dimethylphenethyl Acetate], at TRPV1 [1], the “% Enhancement” value turned out to be 14.64%. Besides, the “Percent Enhancement when combined with 3.5 microMolar VBE” value at TRPV1 [3] (enhancer level 50 microMolar) was 300%; at TRPV1 [3] (enhancer level 100 microMolar), 310%; at TRPV1 [3] (enhancer level 200 microMolar), 410%; at TRPV1 [3] (enhancer level 1000 microMolar) it was 420%.

With `C/C=C\C(=O)C1C(C)=CCCC1(C)C` (stereo not drawn) [Alpha-Damascone], at TRPV1 [1], the “% Enhancement” value was 28.1%.

For `CC(=O)/C=C/C1C(C)=CCCC1(C)C` (stereo not drawn) [Alpha-Ionone], the “% Enhancement” value at TRPV1 [1] was determined as 18.84%.

In the case of `COc1cc(CNC(=O)CCCC/C=C/C(C)C)ccc1O` [Capsaicin, reference compound], the “'Hotness' (as log Scoville Units)” value in test [2] (burning sensation) amounted to 7.2 log Scoville Units. In addition, the “activation level (calcium flux)” value on TRPV1 [4] (concentration of 300 nM) is on record as “about 14127.16 calcium ions”.

`O=Cc1ccco1` [Furfural]: the “% Enhancement” value on TRPV1 [1] is on record as 19.29%.

`CCCC(=O)OC/C=C(\C)CCC=C(C)C` [Geranyl Butyrate]: the “% Enhancement” value at TRPV1 [1] is given as 23.46%.

As to `CCCCCCCO` [Heptyl Alcohol], on TRPV1 [1], the “% Enhancement” value came out at 10.16%.

With `COc1cc(CNC(=O)CCCCC/C=C/C(C)C)ccc1O` [HomoCapsaicin], the “'Hotness' (as log Scoville Units)” value in test [2] is reported as 6.9 log Scoville Units.

For the compound `COc1cc(CNC(=O)CCCCCCCC(C)C)ccc1O` [HomodihydroCapsaicin], in test [2], the “'Hotness' (as log Scoville Units)” value was found to be 6.9 log Scoville Units.

With `C=C(OCC)C1C(C)(C)CC(=O)CC1(C)C` [Kephalis], on TRPV1 [1], the “% Enhancement” value is given as 13.74%.

With `COc1cc(CNC(=O)CCCCCC(C)C)ccc1O` [NorhydroCapsaicin], the “'Hotness' (as log Scoville Units)” value in test [2] is given as 7.0 log Scoville Units.

With `COC(Cc1ccccc1)OC` [Phenylacetaldehyde Dimethyl Acetal], the “% Enhancement” value on TRPV1 [1] was 14.07%.

For `O=P([O-])([O-])OP(=O)([O-])[O-].[Na+].[Na+].[Na+].[Na+]` [Tetrasodium Pyrophosphate], at TRPV1 [1], the “% Enhancement” value was found to be 15.62%.

`CCC/C=C/COC(C)=O` [Trans-2-Hexenyl Acetate]: on TRPV1 [1], the “% Enhancement” value turned out to be 10.62%.

In the case of `CCCCOCc1ccc(O)c(OC)c1` [Vanillyl Butyl Ether], the “'Hotness' (as log Scoville Units)” value in test [2] (burning sensation) worked out at 5.7 log Scoville Units. For the same compound, the “activation level (calcium flux)” value at TRPV1 [4] (concentration of 1 mM) is “approximately 14942.84 calcium ions”. Moreover, the taste versus control entry in test [5] (setting [6]) was “improved taste over the control”.

As for `COc1cc(CCC(C)=O)ccc1O` [Zingerone], the “'Hotness' (as log Scoville Units)” value in test [2] (burning sensation) is reported as less than 4.0 log Scoville Units. Moreover, the taste versus control result in test [5] (setting [6]) is recorded as “improved taste over the control”.

As for `C=C(C)C1CC=C(C)C(OC(C)=O)C1` (centres unmarked) [carvyl acetate], the “% Enhancement” value at TRPV1 [1] is listed as 12.83%.

As to `C/C=C/C(=O)C1C(C)C=CCC1(C)C` (centres unmarked) [delta-damascone], the “% Enhancement” value at TRPV1 [1] was determined as 28.53%.

Turning to `C/C=C/c1ccc(OCC)c(O)c1` [vanitrope], the “direct activation of TRPV1 (TRPV1 activator or not)” value at TRPV1 [4] is reported as “not considered to be a TRPV1 activator”. Moreover, in test [5] (hours 1-3 for bothersome and hours 1-2 for bad aftertaste), the taste versus control entry is reported as “taste improvement”.

Farnesene: the “% Enhancement” value on TRPV1 [1] was found to be 12.33%. Also, the “Percent Enhancement when combined with 3.5 microMolar VBE” value at TRPV1 [3] (enhancer level 50 microMolar) is reported as 25%; at TRPV1 [3] (enhancer level 100 microMolar), 100%; at TRPV1 [3] (enhancer level 200 microMolar) it was 175%; at TRPV1 [3] (enhancer level 1000 microMolar), 400%.

For the origin of these results see patent US8962057B2, “Methods for improving taste and oral care compositions with improved taste” (The Procter & Gamble Company, priority 2009, dated 2015).
